For orientation: IC50 means the point on the concentration scale where inhibition reaches its midpoint.

The target in the assay is T1, ligand binding domain of human RORγ (A262-S507) (Homo sapiens, UniProt P51449).
T1 construct: made in house; host or cells: E. coli
T1 sequence (P51449 262-507): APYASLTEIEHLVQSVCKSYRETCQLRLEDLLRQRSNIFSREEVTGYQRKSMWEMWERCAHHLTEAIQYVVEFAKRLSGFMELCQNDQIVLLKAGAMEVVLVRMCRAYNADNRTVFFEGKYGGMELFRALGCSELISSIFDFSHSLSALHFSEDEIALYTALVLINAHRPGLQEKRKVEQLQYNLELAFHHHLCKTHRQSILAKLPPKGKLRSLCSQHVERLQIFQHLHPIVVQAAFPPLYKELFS
The assay is described as follows: General RORγ SPA binding assay (competition with [3H]25-hydroxycholesterol). To be noted: RORγ SPA binding assay, inhibition of [3H]25-hydroxycholesterol binding; read-out: IC50. In a few lines:
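N-terminally His-tagged protein was expressed in E. coli and nickel-purified. Then 50 nM protein was preincubated with compound for 15 min at room temperature in PBS with 0.5% fatty acid free BSA, followed by radioligand for 15 min and copper His-tag SPA beads for 30 min. IC50 came from percent inhibition of binding.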
Consider `O=C(NCc1cccc(Cl)c1)c1cnc(O)nc1C1CCN(C(=O)Cc2c(F)cccc2F)CC1` [Compound A98, N-(3-chlorobenzyl)-4-(1-(2-(2,6-difluorophenyl)acetyl)piperidin-4-yl)-2-hydroxypyrimidine-5-carboxamide], for which the IC50 was determined as 398 nM.

For the compound `C/C(=N\Oc1ccnc(Cl)c1)c1cnc(N)nc1C1CCN(C(=O)Nc2c(F)cccc2F)CC1` [Compound B59, 4-(2-Amino-5-{(1E)-N-[(2-chloropyridin-4-yl)oxy]ethanimidoyl}pyrimidin-4-yl)-N-(2,6-difluorophenyl)piperidine-1-carboxamide], the IC50 came to 49.1 nM.

Turning to `Cc1nc(C)c(C(=O)NCc2ccnc(C(F)(F)F)c2)c(C2CCN(C(=O)Cc3c(F)cccc3F)CC2)n1` [Compound A61, 4-(1-(2-(2,6-difluorophenyl)acetyl)piperidin-4-yl)-2,6-dimethyl-N-((2-(trifluoromethyl)pyridin-4-yl)methyl)pyrimidine-5-carboxamide], the IC50 turned out to be 38.2 nM.

As for `Cc1ncc(C(O)(CCO)COc2cccc(C(F)(F)F)n2)c(C2CCN(C(=O)Nc3c(F)cccc3F)CC2)n1` (stereo not drawn) [Compound N30, N-(2,6-Difluorophenyl)-4-{5-[1,3-dihydroxy-1-({[6-(trifluoromethyl)pyridin-2-yl]oxy}methyl)propyl]-2-methylpyrimidin-4-yl}piperidine-1-carboxamide], the IC50 is 10.9 nM.

On to `Cc1ncc(C(=O)NCc2ccnc(Cl)c2)c(C2CCN(C(=O)Cc3c(F)cccc3F)CC2)n1` [Compound A56, N-((2-chloropyridin-4-yl)methyl)-4-(1-(2-(2,6-difluorophenyl)acetyl)piperidin-4-yl)-2-methylpyrimidine-5-carboxamide], for which the IC50 turned out to be 19.3 nM.

Take `C/C(=N/Oc1cccc(OC(F)(F)F)c1)c1cnc(C)nc1C1CCN(C(=O)Cc2c(F)cccc2F)CC1` [Compound B8, (Z)-2-(2,6-difluorophenyl)-1-(4-(2-methyl-5-(1-((3-(trifluoromethoxy)phenoxy)imino)ethyl)pyrimidin-4-yl)piperidin-1-yl)ethanone]: the half-maximal inhibitory concentration (IC50) stood at 1500 nM.

As for `Cc1cc(C)cc(COC(C)(C)c2cnc(C)nc2C2CCN(C(=O)Cc3c(F)cccc3F)CC2)c1` [Compound E5, 2-(2,6-Difluorophenyl)-1-(4-(5-(2-(3,5-dimethylbenzyloxy)propan-2-yl)-2-methylpyrimidin-4-yl)piperidin-1-yl)ethanone], the IC50 turned out to be 10.6 nM.

As to `CSc1ncc(C(C)(O)COc2ccnc(C(F)(F)F)n2)c(C2CCN(C(=O)Nc3c(F)cccc3F)CC2)n1` (stereo not drawn) [Compound D28, N-(2,6-Difluorophenyl)-4-[5-(1-hydroxy-1-methyl-2-{[2-(trifluoromethyl)pyrimidin-4-yl]oxy}ethyl)-2-(methylthio)pyrimidin-4-yl]piperidine-1-carboxamide], the half-inhibitory concentration (IC50) was 14.7 nM.

As for `Cc1cc(C)cc(CNCc2cnc(C)nc2C2CCN(C(=O)Cc3c(F)cccc3F)CC2)c1` [Compound F6, 2-(2,6-Difluorophenyl)-1-(4-(5-((3,5-dimethylbenzylamino)methyl)-2-methylpyrimidin-4-yl)piperidin-1-yl)ethanone], the IC50 is 44.2 nM.

Consider `Cc1cc(C)cc(COC(C)(COC[C@H](O)CO)c2cnc(C)nc2C2CCN(C(=O)Cc3c(F)cccc3F)CC2)c1` (stereo in doubt) [Compound E8, 2-(2,6-Difluorophenyl)-1-(4-(5-(1-(2,3-dihydroxypropoxy)-2-(3,5-dimethylbenzyloxy)propan-2-yl)-2-methylpyrimidin-4-yl)piperidin-1-yl)ethanone], for which the IC50 was 4.1 nM.

Regarding `Cc1cc(C)cc(CNC(=O)c2cnc(C)nc2C2CCN(C(=O)Cc3c(F)cccc3Cl)CC2)c1` [Compound A3, 4-(1-(2-(2-chloro-6-fluorophenyl)acetyl)piperidin-4-yl)-N-(3,5-dimethylbenzyl)-2-methylpyrimidine-5-carboxamide], the IC50 is 7.2 nM.

Take `CCNC(=O)c1cc(CNC(=O)c2cnc(C)nc2C2CCN(C(=O)Cc3c(F)cccc3F)CC2)ccn1` [Compound A77, 4-(1-(2-(2,6-difluorophenyl)acetyl)piperidin-4-yl)-N-((2-(ethylcarbamoyl)pyridin-4-yl)methyl)-2-methylpyrimidine-5-carboxamide]: the IC50 is 1340 nM.

In the case of `CC(=O)NCC(O)(COc1cccc(C(F)(F)F)n1)c1cnc(C)nc1C1CCN(C(=O)Oc2ccccc2F)CC1` (stereo not drawn) [Compound N43, 2-Fluorophenyl 4-{5-[2-(acetylamino)-1-hydroxy-1-({[6-(trifluoromethyl)pyridin-2-yl]oxy}methyl)ethyl]-2-methylpyrimidin-4-yl}piperidine-1-carboxylate], the IC50 was 9.2 nM.

Take `Cc1ncc(C(=O)NCc2ccc(Cl)cc2C)c(C2CCN(C(=O)Cc3c(F)cccc3F)CC2)n1` [Compound A59, N-(4-chloro-2-methylbenzyl)-4-(1-(2-(2,6-difluorophenyl)acetyl)piperidin-4-yl)-2-methylpyrimidine-5-carboxamide]: the IC50 was found to be 25.5 nM.

Turning to `Nc1ncc(C(F)(F)COc2ccnc(C(F)(F)F)n2)c(C2CCN(C(=O)Nc3c(F)cccc3F)CC2)n1` [Compound N17, 4-[2-Amino-5-(1,1-difluoro-2-{[2-(trifluoromethyl)pyrimidin-4-yl]oxy}ethyl)pyrimidin-4-yl]-N-(2,6-difluorophenyl)piperidine-1-carboxamide], the 50% inhibitory concentration (IC50) was 6.2 nM.

On to `COc1cccc(O/N=C(\C)c2cnc(C)nc2C2CCN(C(=O)Cc3c(F)cccc3F)CC2)c1` [Compound B21, (E)-2-(2,6-difluorophenyl)-1-(4-(5-(1-((3-methoxyphenoxy)imino)ethyl)-2-methylpyrimidin-4-yl)piperidin-1-yl)ethanone], for which the 50% inhibitory concentration (IC50) was 23.7 nM.

Regarding `C/C(=N/Oc1ccnc(C(F)(F)F)c1)c1c(C)nc(C)nc1C1CCN(C(=O)Cc2c(F)cccc2F)CC1` [Compound B2, (1Z)-1-(4-{1-[(2,6-Difluorophenyl)acetyl]piperidin-4-yl}-2,6-dimethylpyrimidin-5-yl)ethanone 0-[2-(trifluoromethyl)pyridin-4-yl]oxime], the IC50 is 444 nM.

Consider `C/C(=N/Oc1cccc(Cl)c1)c1cnc(C)nc1C1CCN(C(=O)Cc2c(F)cccc2F)CC1` [Compound B6, (Z)-1-(4-(5-(1-((3-chlorophenoxy)imino)ethyl)-2-methylpyrimidin-4-yl)piperidin-1-yl)-2-(2,6-difluorophenyl)ethanone], for which the IC50 was 1930 nM.

As for `Cc1ncc(-c2nnc(-c3ccnc(C(F)(F)F)n3)o2)c(C2CCN(C(=O)Cc3c(F)cccc3F)CC2)n1` [Compound C62, 4-{1-[(2,6-difluorophenyl)acetyl]piperidin-4-yl}-2-methyl-5-{5-[2-(trifluoromethyl)pyrimidin-4-yl]-1,3,4-oxadiazol-2-yl}pyrimidine], the IC50 was 157 nM.

In the case of `Cc1ncc(C(=O)NCc2cccc(C(F)(F)F)n2)c(C2(F)CCN(C(=O)Cc3c(F)cccc3F)CC2)n1` [Compound A104, 4-(1-(2-(2,6-difluorophenyl)acetyl)-4-fluoropiperidin-4-yl)-2-methyl-N-((6-(trifluoromethyl)pyridin-2-yl)methyl)pyrimidine-5-carboxamide], the IC50 was 231 nM.

As to `C/C(=N\Oc1ccnc(C(F)(F)F)c1)c1cnc(N)nc1C1CCN(C(=O)Nc2c(F)cccc2F)CC1` [Compound B53, 4-{2-amino-5-[(1E)-N-{[2-(trifluoromethyl)pyridin-4-yl]oxy}ethanimidoyl]pyrimidin-4-yl}-N-(2,6-difluorophenyl)piperidine-1-carboxamide], the IC50 was found to be 35.1 nM.

As for `Cc1cc(C)cc(CNC(=O)c2cnc(C)nc2C2CCN(C(=O)c3ccccc3F)CC2)c1` [Compound A23, N-(3,5-dimethylbenzyl)-4-(1-(2-fluorobenzoyl)piperidin-4-yl)-2-methylpyrimidine-5-carboxamide], the half-inhibitory concentration (IC50) came to 254 nM.

Turning to `Cc1ncc(C(C)(F)CNc2ccnc(C(F)(F)F)n2)c(C2CCN(C(=O)Nc3c(F)cccc3F)CC2)n1` (stereo not drawn) [Compound E15, N-(2,6-Difluorophenyl)-4-[5-(1-fluoro-1-methyl-2-{[2-(trifluoromethyl)pyrimidin-4-yl]amino}ethyl)-2-methylpyrimidin-4-yl]piperidine-1-carboxamide], the IC50 was determined as 56.5 nM.

As to `CC(O)(COc1ccnc(C(F)(F)F)n1)c1cnc(N)nc1C1CCN(C(=O)Nc2c(F)cccc2F)CC1` (stereo not drawn) [Compound D29, 4-[2-Amino-5-(1-hydroxy-1-methyl-2-{[2-(trifluoromethyl)pyrimidin-4-yl]oxy}ethyl)pyrimidin-4-yl]-N-(2,6-difluorophenyl)piperidine-1-carboxamide], the IC50 turned out to be 14.4 nM.

`Cc1nc(C)c(-c2nc(-c3cccc(C(F)(F)F)c3)no2)c(C2CCN(C(=O)Nc3c(F)cccc3F)CC2)n1` [Compound C63, N-(2,6-difluorophenyl)-4-(2,6-dimethyl-5-{3-[3-(trifluoromethyl)phenyl]-1,2,4-oxadiazol-5-yl}pyrimidin-4-yl)piperidine-1-carboxamide]: the IC50 is 281 nM.

In the case of `O=C(NCc1ccc(Cl)c(Cl)c1)c1cncnc1C1CCN(C(=O)Cc2c(F)ccc(F)c2F)CC1` [Compound A68, N-(3,4-dichlorobenzyl)-4-(1-(2-(2,3,6-trifluorophenyl)acetyl)piperidin-4-yl)pyrimidine-5-carboxamide], the IC50 worked out at 95 nM.

For `Cc1nc(C)c(-c2nnc(-c3ccnc(C(F)(F)F)n3)o2)c(C2CCN(S(=O)(=O)c3c(F)cccc3F)CC2)n1` [Compound C33, 4-{1-[(2,6-Difluorophenyl)sulfonyl]piperidin-4-yl}-2,6-dimethyl-5-{5-[2-(trifluoromethyl)pyrimidin-4-yl]-1,3,4-oxadiazol-2-yl}pyrimidine], the concentration for half-maximal inhibition (IC50) is 844 nM.
